For one assay, the target named is T1, recombinant human IL-4 (Homo sapiens, UniProt P05112).
T1 sequence (P05112 25-153): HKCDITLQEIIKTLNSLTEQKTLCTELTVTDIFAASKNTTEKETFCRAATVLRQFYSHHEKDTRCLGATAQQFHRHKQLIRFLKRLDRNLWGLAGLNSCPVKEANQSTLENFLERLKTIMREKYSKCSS
Nature of the assay: TF-1 cell proliferation bioassay with rhIL-4. The format is cell-based. The note with it: rhIL-4 4 ng/ml; inhibitor 10 μg/ml and 2.5 μg/ml; 48 hours; FIG. 3. As to the method: The various simplified sulphated glyconjugates inhibited the proliferation of an IL-4 responsive cell line to differing degrees. This occurs at very low doses and is not due to a toxic effect of the glycoconjugate because other, similarly sulfated polysaccharides (sucrose octasulfate), at the same concentrations of IL-4 and polysaccharide have no effect. These experiments utilize the TF-1 cells that are grown in 2 ng/ml recombinant human (rh) GM-CSF. TF-1 cells were originally established from a bone marrow sample from a person with severe pancytopenia. These cells are dependent on IL-3 or GM-CSF for long term growth and are responsive to a variety of human cytokines including human IL-4.
(§1) Briefly, proliferation assays were carried out in 96-well microplates suitable for such assays. […] When the effect of the different simplified sulfated glycoconjugates was measured, the wells also contained various concentrations of these molecules (10 μg/ml and 2.5 μg/ml) and the rhIL-4 concentration was held constant at 4 ng/ml. The cells proliferated for 48 hours, after which the number of cells present was quantified by staining with 20 μL per well of the CellTiter 96 Aqueous One reagent was incubated with TF1 cells for the last 3.5 to 4 hours of culture and then absorbance was read at 490 nm on an Enspire Multimode plate reader (PerkinElmer).

For a further assay, the target named is recombinant human IL-13 (Homo sapiens, UniProt P35225). Nature of the assay: TF-1 cell proliferation bioassay with rhIL-13. The format is cell-based. The note with it: rhIL-13 4 ng/ml; inhibitor 10 μg/ml and 2.5 μg/ml; 48 hours; FIG. 1. As to the method:
The various simplified sulphated glycoconjugates inhibited the proliferation of an IL-13 responsive cell line to differing degrees. This occurs at very low doses and is believed not to be due to a toxic effect of the glycoconjugates because other, similarly sulfated polysaccharides (e.g. sucrose octasulfate), at the same concentrations of IL-13 and polysaccharide have no effect. These experiments utilize the TF-1 cells that are grown in 2 ng/ml recombinant human (rh) GM-CSF. TF-1 cells were originally established from a bone marrow sample from a person with severe pancytopenia. These cells are dependent on IL-3 or GM-CSF for long term growth and are responsive to a variety of human cytokines including IL-13.
as §1, with “rhIL-13” for “rhIL-4”

The structures appear in SMILES notation.

Sequence of recombinant human IL-13 (P35225 25-146): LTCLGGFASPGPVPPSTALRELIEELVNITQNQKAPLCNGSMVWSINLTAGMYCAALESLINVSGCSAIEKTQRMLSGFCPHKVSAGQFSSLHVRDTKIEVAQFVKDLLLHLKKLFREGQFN

With `O=S(=O)(O)OC[C@H]1O[C@@](COS(=O)(=O)O)(O[C@H]2O[C@H](COS(=O)(=O)O)[C@@H](OS(=O)(=O)O)[C@H](OS(=O)(=O)O)[C@H]2OS(=O)(=O)O)[C@@H](OS(=O)(=O)O)[C@@H]1OS(=O)(=O)O` [sucrose octasulfate], the “inhibition of IL-4 stimulated TF-1 cell proliferation” value on recombinant human IL-4 was “no effect”. At recombinant human IL-13, the “inhibition of IL-13 stimulated TF-1 cell proliferation” value was “no effect”.
